Test results taken from article doi:10.1101/144204v1, “On the use of the experimentally determined enzyme inhibition constant as a measure of absolute binding affinity” (biorxiv, 2017).
Counter-ions that a name gives are not always drawn.

Biological target: T1, eeAChE (Electrophorus electricus acetylcholinesterase) (Electrophorus electricus, UniProt O42275)
T1 construct: gene ache; construct details not given
Assay: Ellman assay (ATCh/DTNB, […] nm), Lineweaver-Burk
Type: biochemical

T1 sequence (O42275 24-633): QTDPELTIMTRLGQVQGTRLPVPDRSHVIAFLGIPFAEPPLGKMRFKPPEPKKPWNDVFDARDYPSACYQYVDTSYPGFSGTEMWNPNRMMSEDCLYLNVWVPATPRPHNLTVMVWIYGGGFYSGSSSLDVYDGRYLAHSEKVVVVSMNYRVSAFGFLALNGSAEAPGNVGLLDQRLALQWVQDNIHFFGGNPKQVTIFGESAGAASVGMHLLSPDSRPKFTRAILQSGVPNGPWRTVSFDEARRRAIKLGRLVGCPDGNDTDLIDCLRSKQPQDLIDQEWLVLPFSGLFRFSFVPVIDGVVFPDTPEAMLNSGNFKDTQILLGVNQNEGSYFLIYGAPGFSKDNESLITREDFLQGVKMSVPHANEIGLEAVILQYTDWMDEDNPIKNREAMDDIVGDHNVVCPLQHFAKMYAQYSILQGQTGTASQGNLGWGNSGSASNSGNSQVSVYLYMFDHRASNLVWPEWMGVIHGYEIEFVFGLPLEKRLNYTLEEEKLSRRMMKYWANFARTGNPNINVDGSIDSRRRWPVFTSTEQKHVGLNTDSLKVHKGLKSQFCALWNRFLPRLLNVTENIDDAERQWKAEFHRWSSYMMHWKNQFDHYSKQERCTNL

c1ccc2c(NCCCCCCCNc3c4c(nc5ccccc35)CCCC4)c3c(nc2c1)CCCC3 [bis(7)-tacrine, 1,7-N-heptylene-bis-9,9'-amino-1,2,3,4-tetrahydro-acridinium dihydrochloride]
Ki: 2.9 ± 0.4 pM
